From ChEMBL document CHEMBL1148204, “Isolation and structure assignments of rostratins A-D, cytotoxic disulfides produced by the marine-derived fungus Exserohilum rostratum” (J Nat Prod, 2004)

These compounds were tested on HCT-116 (assay: Cytotoxicity against human HCT116 cells).
Assay type: functional, cell-based

SMILES | IC50 [µM]
CO[C@H]1CC(=O)[C@H]2C[C@@]34SS[C@]5(C[C@@H]6C(=O)C[C@H](OC)[C@H](O)[C@@H]6N5C3=O)C(=O)N4[C@H]2[C@H]1O [ROSTRATIN C] | 1.6
O=C1C[C@@H](S)[C@H](O)[C@H]2[C@@H]1C[C@@]13SS[C@]4(C[C@@H]5C(=O)C[C@@H](S)[C@H](O)[C@@H]5N4C1=O)C(=O)N23 [ROSTRATIN D] | 35
O=C1N2[C@H]3[C@H](C[C@]24SS[C@]12C[C@H]1[C@@H]([C@@H](O)CC[C@@H]1O)N2C4=O)[C@@H](O)CC[C@@H]3O [ROSTRATIN A] | 9
O=C1CC[C@H](O)[C@H]2[C@@H]1C[C@@]13SS[C@]4(C[C@@H]5C(=O)CC[C@H](O)[C@@H]5N4C1=O)C(=O)N23 [ROSTRATIN B] | 4.4
